Results from ChEMBL document CHEMBL2331465, “The discovery of novel isoflavone pan peroxisome proliferator-activated receptor agonists” (Bioorg Med Chem, 2013).
Calls of active or inactive are those of the source. The rule behind the calls is not given here.

Legend:
Rattus norvegicus [1] = experiment: Antidiabetic activity against Zucker diabetic fatty rat assessed as blood glucose level at 3 mg/kg (reference value: 124 mg/dL); format: functional
Rattus norvegicus [2] = experiment: Antimetabolic syndrome activity in Zucker diabetic fatty rat assessed as inhibition of fatty liver disease in measured as liver mass at 3 mg/kg (reference value: 23.9 g); format: functional
Rattus norvegicus [3] = experiment: Antidiabetic activity against Zucker diabetic fatty rat assessed as blood glucose level at 3 mg/kg after 30 mins (reference value: 270 mg/dL); format: functional
Rattus norvegicus [4] = experiment: Antimetabolic syndrome activity in Zucker […] rat assessed as inhibition of fatty liver disease in measured as liver mass at 3 mg/kg (reference value: 8.6 g); format: functional
Rattus norvegicus [5] = experiment: Antidiabetic activity against Zucker diabetic fatty rat assessed as blood glucose level at 3 mg/kg measured after 2 hrs of glucose intake by oral glucose tolerance test (reference value: 185 mg/dL); format: functional
Rattus norvegicus [6] = experiment: Reduction in Zucker diabetic fatty rat body weight gain at 3 mg/kg/day measured after 6 weeks (reference value: 103 g); format: functional
Rattus norvegicus [7] = experiment: Reduction in Zucker diabetic fatty rat body weight gain at 3 mg/kg/day measured after 3 weeks; format: functional, organism-based
[8] = biological target: T1, Peroxisome proliferator-activated receptor alpha (Homo sapiens, UniProt Q07869); experiment: Agonist activity at human PPARalpha expressed in HEK293 cells cotransfected with PPREx4-TK-luc assessed as activation of luciferase activity measured after 48 hrs by transactivation assay; format: cell-based
T1 sequence (Q07869 whole entry): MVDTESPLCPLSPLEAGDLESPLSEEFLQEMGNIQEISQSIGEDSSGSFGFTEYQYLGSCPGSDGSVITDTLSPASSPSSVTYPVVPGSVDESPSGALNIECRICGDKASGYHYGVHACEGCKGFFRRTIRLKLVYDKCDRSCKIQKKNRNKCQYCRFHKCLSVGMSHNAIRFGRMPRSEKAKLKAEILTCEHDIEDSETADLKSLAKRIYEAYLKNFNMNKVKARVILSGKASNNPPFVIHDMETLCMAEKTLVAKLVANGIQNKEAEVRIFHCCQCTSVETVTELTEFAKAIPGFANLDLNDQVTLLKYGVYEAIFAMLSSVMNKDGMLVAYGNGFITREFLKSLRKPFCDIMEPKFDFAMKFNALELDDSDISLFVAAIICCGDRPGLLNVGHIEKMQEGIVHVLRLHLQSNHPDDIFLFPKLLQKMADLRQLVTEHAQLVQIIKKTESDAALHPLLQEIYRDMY

[9] = biological target: T2, Peroxisome proliferator-activated receptor delta (Homo sapiens, UniProt Q03181); experiment: Agonist activity at human PPARdelta expressed in HEK293 cells cotransfected with PPREx4-TK-luc assessed as activation of luciferase activity measured after 48 hrs by transactivation assay; format: cell-based
T2 sequence (Q03181 whole entry): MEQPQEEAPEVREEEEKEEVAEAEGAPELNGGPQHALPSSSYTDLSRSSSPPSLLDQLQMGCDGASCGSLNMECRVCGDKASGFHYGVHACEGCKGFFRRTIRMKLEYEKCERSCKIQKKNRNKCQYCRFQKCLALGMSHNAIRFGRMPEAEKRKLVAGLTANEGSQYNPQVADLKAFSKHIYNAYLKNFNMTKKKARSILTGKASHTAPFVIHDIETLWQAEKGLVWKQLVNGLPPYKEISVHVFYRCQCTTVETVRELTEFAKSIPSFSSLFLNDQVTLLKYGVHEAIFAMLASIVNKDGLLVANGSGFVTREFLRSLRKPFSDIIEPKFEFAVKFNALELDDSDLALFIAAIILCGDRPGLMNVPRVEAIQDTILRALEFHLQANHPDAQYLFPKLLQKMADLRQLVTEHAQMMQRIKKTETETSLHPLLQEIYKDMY

[10] = Cytotoxicity against human HEK293 cells assessed as cell viability at 10 uM measured after 48 hrs by MTS assay relative to vehicle control; format: cell-based; details: read-out: Activity
[11] = Cytotoxicity against human HEK293 cells assessed as cell viability at 100 uM measured after 48 hrs by MTS assay relative to vehicle control; format: cell-based; details: read-out: Activity
[12] = biological target: T3, Peroxisome proliferator-activated receptor gamma (Homo sapiens, UniProt P37231); experiment: Agonist activity at human PPARgamma expressed in HEK293 cells cotransfected with PPREx4-TK-luc assessed as activation of luciferase activity measured after 48 hrs by transactivation assay; format: cell-based
T3 sequence (P37231 whole entry): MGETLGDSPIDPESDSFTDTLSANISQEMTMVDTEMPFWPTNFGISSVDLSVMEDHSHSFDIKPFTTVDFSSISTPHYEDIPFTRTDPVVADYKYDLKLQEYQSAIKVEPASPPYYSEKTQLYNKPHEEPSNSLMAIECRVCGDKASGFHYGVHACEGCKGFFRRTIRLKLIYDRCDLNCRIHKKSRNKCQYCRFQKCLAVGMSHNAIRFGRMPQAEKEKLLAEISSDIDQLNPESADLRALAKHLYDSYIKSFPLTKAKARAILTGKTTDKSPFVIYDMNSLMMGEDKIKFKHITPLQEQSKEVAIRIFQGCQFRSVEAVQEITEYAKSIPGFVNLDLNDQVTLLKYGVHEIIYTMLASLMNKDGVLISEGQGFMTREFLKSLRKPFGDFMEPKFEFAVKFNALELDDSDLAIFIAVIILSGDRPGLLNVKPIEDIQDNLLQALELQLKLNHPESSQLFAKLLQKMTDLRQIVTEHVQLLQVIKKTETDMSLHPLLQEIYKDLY

Row | Structure (SMILES) | EC50 [8] [µM] | EC50 [9] [µM] | EC50 [12] [µM] | Activity (Rattus norvegicus [1]) [mg/dL] | Activity (Rattus norvegicus [2]) [g] | Activity (Rattus norvegicus [3]) [mg/dL] | Activity (Rattus norvegicus [4]) [g] | Activity (Rattus norvegicus [5]) [mg/dL] | Activity (Rattus norvegicus [6]) [g] | Activity (Rattus norvegicus [7]) | viability at 48 h, 10 µM [10] [%] | viability at 48 h, 100 µM [11] [%]
1 | O=c1c(-c2ccc3c(c2)OCO3)coc2cc(O)ccc12 [PSEUDOBAPTOGENIN] |  | 22.3 |  |  |  |  |  |  |  |  | > 90 | 
2 | O=c1c(-c2ccc(F)cc2)coc2cc(O)ccc12 | 23.1 | 24.4 |  |  |  |  |  |  |  |  | 78 | 
3 | CC(C)(Oc1ccc(CCNC(=O)c2ccc(Cl)cc2)cc1)C(=O)O [BEZAFIBRATE] |  |  | 70.4 |  |  |  |  |  |  |  | 76 | 73.7

Further lines, with some results ahead:

Row | EC50 [8] [µM] | EC50 [9] [µM] | EC50 [12] [µM] | Structure (SMILES) | Activity (Rattus norvegicus [1]) [mg/dL] | Activity (Rattus norvegicus [2]) [g] | Activity (Rattus norvegicus [3]) [mg/dL] | Activity (Rattus norvegicus [4]) [g] | Activity (Rattus norvegicus [5]) [mg/dL] | Activity (Rattus norvegicus [6]) [g] | Activity (Rattus norvegicus [7]) | viability at 48 h, 10 µM [10] [%] | viability at 48 h, 100 µM [11] [%]
4 | 33.1 | 12.4 |  | COc1cccc(-c2coc3cc(O)ccc3c2=O)c1 | 113 | 19.7 | 247 | 8.3 | 154 | 94 | Active | > 90 | 74
5 |  | 17.2 |  | COc1cc(OC)cc(-c2coc3cc(O)ccc3c2=O)c1 |  |  |  |  |  |  |  | 80 | 
